# Experimental data taken from patent publication US7525013B2, “Soybean selection system based on AEC-resistance” (United Soybean Board, priority 2003, dated 2009).
# Legend:
# [1] = system: pigweed (Amaranthus retroflexus); experiment: Herbicide spray study on pigweed; assay type: in vivo
# Description: (§1) Spray studies have been done using major dicot and monocot weeds, pigweed (Amaranthus retroflexus) and giant foxtail (Setaria faberi) in addition to tobacco. These experiments using 7 to 10 day old seedlings show 20 mM AEC is lethal to pigweed, foxtail and tobacco.
# (§2) A major dicot and monocot weed of tobacco, pigweed (Amaranthus retroflexus) and giant foxtail (Setaria faberi) was used in addition to a model crop plant, tobacco. […] For larger plants grown in the green house 20 mM lysine and threonine or 40 mM lysine alone are needed for effective weed control. To increase uptake of these compounds, up to 0.2% Silwett (surfactant) was used. Silwett at 0.5% and above kills the plants. Silwett was not found to be a very effective surfactant. Studies with cultured cells and seedlings indicate that 100 μM levels of AEC are effective for selection.
# [2] = system: cultured cells and seedlings; experiment: Selection studies with cultured cells and seedlings; assay type: cell-based
# Description: as §2
# DHPS enzyme of E. coli = DHPS enzyme of E. coli (Escherichia coli, UniProt P0A6L2); conditions: E. coli DHPS versus plant enzymes; cited from earlier work
# tobacco seeds = experiment: Germination of tobacco seeds; assay type: in vivo; conditions: germinating tobacco seeds
# Description: (§3) As a first step in the selection, different concentrations of AEC were used to see if it can kill the proliferating soybean somatic embryos as well as tobacco leaves and germinating tobacco and soybean seeds and germinating soybean somatic embryos. The effect of AEC is clearly seen in all these cases with varying concentrations. […] For proliferating soybean somatic embryo concentrations up to 1 mM AEC is needed along with 0.0075% methylated seed oil to kill them. To further confirm that AEC is acting on the above mentioned tissues, the E. coli DHDPS gene was cloned and put into the binary vector p1201 with the pea RBCs transit peptide under the CaMV 35S promoter.
# soybean seeds = experiment: Germination of soybean seeds on AEC containing agar plates; assay type: in vivo
# Description: as §3
# (§4) An AEC selection system for soybean seeds with precise genetic changes and model system seeds (for rapid system validation) were germinated on 2 mM and 5 mM AEC containing agar plates. On the control plates without AEC all the seeds germinated, however only ˜10% of the soybean seeds germinated on 2 mM AEC plates and none on 5 mM plates.
# (§5) To determine whether AEC can be developed as a selectable marker for soybeans the effect of different concentrations of AEC was examined on the germination of soybean seeds and matured soybean somatic embryos and on proliferating soybean somatic embryos. The effect of AEC is clearly seen in all these cases with varying concentrations. The effect of AEC was also examined as a herbicide against pigweed, foxtail and tobacco.
# model system seeds = experiment: Germination of model system seeds on AEC containing agar plates; assay type: in vivo; conditions: 2 mM and 5 mM AEC agar plates
# Description: as §4
# tobacco = experiment: Herbicide spray study on tobacco; assay type: in vivo
# Description: as §1, §2
# [3] = system: Clones expressing the insensitive plant DHPS enzymes (E. coli auxotroph AT997); conditions: clones expressing lysine insensitive plant DHPS; cited from earlier work
# [4] = system: germinating soybean somatic embryos; experiment: Germination of soybean somatic embryos; assay type: cell-based
# Description: as §3
# The effect of AEC on soybean somatic embryos were checked at two stages (1) during the germination (2) during proliferation. The AEC effect during germination was very effective with concentrations above 100 μM were enough to prevent the germination completely.
# as §5
# [5] = system: E. coli auxotroph AT998 rescued with modified soybean DHPS gene; experiment: Growth of E. coli auxotroph rescued with modified soybean DHPS gene on 2-AEC plates; assay type: cell-based; conditions: minimal media plates with 0.5 mM 2-AEC
# Excerpt: To test if the modified soy DHDPS can become insensitive to AEC and whether 18:1 desaturases can function as a 16:1 desaturase, experiments were conduced with E. Coli auxotrophs. A DHDPS auxotroph was obtained from the E. coli genetic center that can be rescued on medium without diaminopimelic acid when transformed with lysine insensitive DHPS and not with the wild type gene. Similarly, the E. coli auxotroph (fabA/fadR mutant) was obtained which can be complimented by C14 and C16 ACP desaturases but not by stearoyl-ACP desaturases. The primers required for cloning were designated and obtained from soybean genes. A suitable E. coli expression vector was obtained to express these genes in the respective auxotrophs.
# It was shown in Arabidopsis, and populous deltoidsXpopulus tricho carpa modification of tryptophan53 (W) to Arginine53 (R) made the DHPS enzyme from these two plants insensitive to lysine concentrations up to 1 mM. E. coli auxotroph AT997 was rescued using these modified genes. This tryptophan residue is present in the consensus sequence MSWDEHI (SEQ ID NO: 6) in several plant DHPS genes (Vauterin et al.,2000). […] With our modified soybean DHPS gene we obtained similar results. We also targeted the tryptophan residue present in the consensus sequence MSWDEHI (SEQ ID NO: 6) in the soybean DHPS gene to convert it to arginine.
# [6] = system: proliferating soybean somatic embryos; experiment: Killing / growth inhibition of proliferating soybean somatic embryos; assay type: cell-based
# Description: as §3
# However, selection during proliferation is always a better way as selected clones can be proliferated and the untransformed embryos can be killed in the earlier stages itself. Unfortunately concentrations up to 20 mM were not sufficient to kill most of the proliferating embryos, though some of the embryos turned yellowish and developed brown spots, but many of them continued to proliferate like controls even after two changes of the medium, once every 15 days. To find out if surfactants can help in AEC absorption during proliferation a methylated seed oil based surfactant was used. […] It was determined that a 0.005% concentration is suitable to use with AEC. […] The cultures on plates with 20 mM AEC died in 4 days indicating solid medium selection can be useful.
# as §1
# [7] = system: giant foxtail (Setaria faberi); experiment: Herbicide spray study on giant foxtail; assay type: in vivo
# Description: as §1, §2
# plant enzymes (DHPS) = conditions: read-out: IC50 for lysine; cited from earlier work
# [8] = system: DHPS enzyme, tryptophan53 (W) to Arginine53 (R); conditions: W53R DHPS; cited from earlier work
# [9] = system: larger plants grown in the green house; experiment: Weed control on larger plants grown in the green house; assay type: in vivo
# Description: as §2
# [10] = biological target: T1, DHPS enzyme, tryptophan53 (W) to Arginine53 (R) (Arabidopsis thaliana, UniProt Q9LZX6, W116R); conditions: W53R DHPS; cited from earlier work
# T1 construct: host or cells: E. coli auxotroph AT997 (clones expressing the plant cDNA)
# T1 sequence (Q9LZX6 40-365 W116R): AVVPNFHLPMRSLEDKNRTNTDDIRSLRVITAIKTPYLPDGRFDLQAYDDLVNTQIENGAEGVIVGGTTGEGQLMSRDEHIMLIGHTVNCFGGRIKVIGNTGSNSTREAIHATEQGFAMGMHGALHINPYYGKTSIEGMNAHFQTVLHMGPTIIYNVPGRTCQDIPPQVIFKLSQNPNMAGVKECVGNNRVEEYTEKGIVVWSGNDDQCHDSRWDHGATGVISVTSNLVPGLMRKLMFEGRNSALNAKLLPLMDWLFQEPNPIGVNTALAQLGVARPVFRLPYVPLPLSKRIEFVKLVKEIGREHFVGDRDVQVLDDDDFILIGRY
# DHPS enzyme of E. coli, sequence (P0A6L2 whole entry): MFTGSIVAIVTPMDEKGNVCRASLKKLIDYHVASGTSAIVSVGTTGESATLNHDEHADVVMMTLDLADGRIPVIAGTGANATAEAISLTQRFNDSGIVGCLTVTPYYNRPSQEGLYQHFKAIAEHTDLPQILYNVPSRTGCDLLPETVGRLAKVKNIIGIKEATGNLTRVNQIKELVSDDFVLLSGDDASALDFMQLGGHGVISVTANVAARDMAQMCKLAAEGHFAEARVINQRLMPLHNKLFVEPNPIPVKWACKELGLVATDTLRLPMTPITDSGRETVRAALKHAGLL
compound,measurement,setting,value
"NCCSC[C@H](N)C(=O)O [AEC, S-2-aminoethyl-cysteine]",concentration lethal to pigweed,[1]; 7 to 10 day old seedlings,20 mM
same,concentration that effectively prevented the growth of pig weed,[1]; whole plant level,20 mM
same,AEC levels effective for selection,[2],100 µM
same,fold less sensitive to AEC than plant enzymes,DHPS enzyme of E. coli,50 fold
same,AEC concentration required to completely inhibit germination of tobacco seeds,tobacco seeds,2.5 mM
same,soybean seeds germinated,"soybean seeds; 2 mM AEC agar plates, all seeds germinated on control plates",~10%
same,effect on germination of soybean seeds,soybean seeds; 2.5 mM AEC,quite effective
same,soybean seeds germinated,soybean seeds; 5 mM AEC agar plates,none
same,inhibition of seed germination,soybean seeds; qualitative,can inhibit
same,model system seeds germinated,model system seeds,Not a single model system seed germinated
same,concentration lethal to tobacco,tobacco; 7 to 10 day old seedlings,20 mM
same,concentration sufficient to kill tobacco,tobacco; whole plant level,20 mM
same,2-AEC concentration to which clones were resistant,[3],2.5 mM
same,effect on germination of soybean somatic embryos,[4]; 100 μM AEC,quite effective
same,AEC concentration sufficient to completely inhibit germination of soybean somatic embryos,[4]; Example 1,100 μm
same,inhibition of soybean somatic embryos (SSE) germination,[4]; qualitative,can inhibit
same,growth of rescued auxotroph,[5],grows well
same,AEC concentration needed to kill proliferating soybean somatic embryos,[6]; along with 0.0075% methylated seed oil,up to 1 mM
same,AEC concentration sufficient to kill proliferating soybean somatic embryos,"[6]; on 1/5th D20 medium (1/5 MS salts, 1/5 B5 vitamins, 20 mg/L 2,4-D)",1.5 mM
same,time until cultures died,"[6]; solid medium plates, 0.2% surfactant, 20 mM AEC",4 days
same,state of proliferating embryo cultures,"[6]; solid medium, 0.2% surfactant, 10 mM AEC, controls behaved the same",remained green with growth for two weeks before they died
same,AEC concentrations not sufficient to kill most of the proliferating embryos,"[6]; without surfactant, two changes of medium, once every 15 days",up to 20 mM
same,concentration lethal to foxtail,[7]; 7 to 10 day old seedlings,20 mM
same,concentration sufficient to kill fox tail,[7]; whole plant level,20 mM
NCCCC[C@H](N)C(=O)O [lysine],IC50,plant enzymes (DHPS),10 µM
same,lysine concentrations to which the modified DHPS enzyme is insensitive,[8],up to 1 mM
same,concentration needed for effective weed control,[9],40 mM
same,lysine concentrations to which the modified DHPS enzyme is insensitive,[10],up to 1 mM
